{"source": "patent US20230218577A1", "about": "“USE OF HEAT SHOCK PROTEIN INHIBITORS FOR THE TREATMENT OF NEURODEVELOPMENTAL DISORDERS” (The Children's Medical Center Corporation, priority 2020, published 2023)", "key": {"[1]": {"system": "pS6, IGF-IRβ, Akt, PRAS40, Raptor in Tsc2-sh neurons", "assay": "Western blot of PI3K/Akt/mTORC1 signaling components in Tsc2-sh neurons", "type": "cell-based, rat", "description": "Hsp90 is a molecular chaperone that protects its client proteins from degradation, and many of its substrates are oncogenic proteins (Neckers and Workman, Hsp90 molecular chaperone inhibitors: are we there yet?; Clin Cancer Res 18, 64-76 (2012)). Among these, insulin-growth factor-1 Receptor β (IGF-IRβ), Akt, and Raptor are components of the PI3K/mTOR pathway that have been identified as Hsp90 substrates in non-neuronal cells (Basso et al., Akt forms an intracellular complex with heat shock protein 90 (Hsp90) and Cdc37 and is destabilized by inhibitors of Hsp90 function; J Biol Chem 277, 39858-39866 (2002); Ohji et al., Suppression of the mTOR-raptor signaling pathway by the inhibitor of heat shock protein 90 geldanamycin; J Biochem 139, 129-135 (2006)). To test whether Hsp90 affects mTORC1 activity through regulation of IGF-IRβ, Akt, or Raptor in neurons, the expression of these potential client proteins were examined in Tsc2-knockdown neurons treated with vehicle or with a 7-point dose-response curve at a three-fold dilution of 17-AGG (assay endpoint DIV20).\nTo investigate whether Hsp90 could function as a chaperone of IGF-IRβ in neurons, wild-type neurons were treated with 17-AGG and then proteasomal degradation was inhibited using bortezomib (BTZ). As expected, Hsp90 inhibition led to reduced IGF-IRβ levels, and this reduction was prevented with BTZ. […] Without wishing to be bound by theory, it is likely that Hsp90 protects IGF-IRβ against proteasomal degradation. To test whether IGF-IRβ protein stability and signaling may represent a potential mechanism by which Hsp90 inhibition reduces mTORC1 activity, IGF-IRβ activation was assessed by autophosphorylation at Tyr1135/1136. Consistent with mTOR-dependent negative feedback on the RTK/Akt pathway (Zhang et al., S6K1 regulates GSK3 under conditions of mTOR-dependent feedback inhibition of Akt; Molecular cell 24, 185-197 (2006)), IGF-IRβ phosphorylation was reduced in the vehicle-treated Tsc2-sh neurons compared to controls (FIGS. 3G, J). […] (FIGS. 3G, J).\nHippocampi and cortexes from 18-day-old rat embryos (Charles River CD1) were isolated under the microscope and collected in Hank's Balanced Salt Solution containing 10 mM MgCl2, 1 mM kynurenic acid, 10 mM HEPES and penicillin/streptomycin. After 5 min dissociation at 37° C. in 30 U/ml of papain, neurons were mechanically triturated and plated in Neurobasal (NB) medium containing B27 supplement, 2 mM L-glutamine, penicillin/streptomycin and primocin (NB/B27). Biochemical analysis was performed on cortical cultures plated at 1×10^6 cells/well onto six-well plates. Immunofluorescent analysis was performed on hippocampal cultures plated at 20×10^3 cells/well onto 96-well plates. All plates were coated with 20 μg/ml poly-D-lysine (PDL).\nProtein extracts were lysed in 1×SDS (22 mM Tris-HCl pH 6.8, 4% Glycerol, 0.8% SDS, 1.6% β-mercaptoethanol, bromphenol blue) sample buffer, heated to 95° C. for 5 min and stored frozen. Before being subjected to discontinuous gel electrophoresis, equal amounts of all protein lysates were verified by Coomassie gel staining. For immunoblotting, equal amounts of protein lysates were subjected to SDS-PAGE, transferred to Immobilon-P Millipore and incubated in LI-COR blocking solution at RT for 2 hrs. Primary and secondary antibodies were diluted in LI-COR blocking solution to the appropriate concentrations. LI-COR IRDye secondary antibodies were used. All images were acquired using the LI-COR Odyssey Classic imager and associated Image Studio Lite analysis software (version 5.2.5). Quantification of protein expression was performed by densitometry scans of immunoblots using LI-COR Odyssey imaging system.\nWestern blot quantifications were performed by protein normalization using GAPDH as loading control. Level of phosphorylated proteins was expressed as the ratio of phosphorylated/total level after GAPDH normalization. […]"}, "[2]": {"system": "hspB1 mRNA in Tsc2-sh neurons", "assay": "qPCR of hspB1 mRNA in Tsc2-sh neurons", "type": "cell-based, rat", "settings": "50 nM between DIV9-13", "procedure": "Tsc2-sh neurons were treated with 17-AGG and it was observed that increased hspB1 expression was reversed by the same dosing scheme that prevented cilia loss (50 nM between DIV9-13) (FIGS. 6A-D). To determine whether a similar dysregulation is present in the brains of TSC patients, the gene expression data from cortical tubers and unaffected brain tissue (Martin et al., The genomic landscape of tuberous sclerosis complex; Nat Commun 8, 15816 (2017)) was examined.\nTotal RNA was prepared with the RNA kit (Zimo Research) following the instructions of the manufacturer and quantified by a spectrophotometer. A total of 1 μg of poly(A) mRNA was used for reverse transcription using the Reverse Transcriptase (BIO-RAD). Real-time PCRs were performed using Power SYBG Green PCR Master Mix (Applied Biosystems). All quantitative PCR (qPCR) reactions were performed in triplicate and normalized against glyceraldehyde-3-phosphate dehydrogenase (GAPDH). Analysis was performed using QuantStudio™ 3 Real-Time PCR System (Thermo Fisher Scientific). The qPCR cycle was: 95° C. for 10 min followed by 40 cycles at 95° C. for 15 sec and 60° C. for 1 min."}, "[3]": {"settings": "Tsc2-sh neurons, 7-point dose-response, assay endpoint DIV20"}, "[4]": {"settings": "Tsc2-sh neurons, 17-AGG dose of 4 μM, assay endpoint DIV20"}, "[5]": {"settings": "Tsc2-sh neurons, dose curve 24 hrs between DIV19-20"}}}
{"smiles": "C=CCNC1=C2C[C@@H](C)C[C@H](OC)[C@H](O)[C@@H](C)/C=C(\\C)[C@H](OC(N)=O)[C@@H](OC)C=C/C=C(\\C)C(=O)NC(=CC1=O)C2=O", "note": "[17-AGG, 3 S,5S,6R,7S,8E,10R,11S,12E,14E)-21-(allylamino)-6-hydroxy-5,11-dimethoxy-3,7,9,15-tetramethyl-16,20,22-trioxo-17-azabicyclo[16.3.1]docosa-8,12,14,18,21-pentaen-10-yl] carbamate]", "values": [{"measurement": "Akt levels", "setting": "[1]; [3]", "result": "no effect"}, {"measurement": "Raptor levels", "setting": "[1]; [3]", "result": "no effect"}, {"measurement": "pS6 phosphorylation", "setting": "[1]; [4]", "result": "significantly reduced"}, {"measurement": "total IGF-IRβ protein level", "setting": "[1]; [4]", "result": "significantly reduced"}, {"measurement": "phosphorylation of Akt", "setting": "[1]; [5]", "result": "reduced"}, {"measurement": "phosphorylation of PRAS40", "setting": "[1]; [5]", "result": "reduced"}, {"measurement": "phosphorylation of IGF-IRβ receptor (Tyr1135/1136)", "setting": "[1]; Tsc2-sh neurons, dose curve, DIV19-20", "result": "further reduced"}, {"measurement": "mTORC1 activation", "setting": "[1]; Tsc2 knockdown cultures at DIV13, four days of 17-AGG 5-450 nM", "result": "without any effect"}, {"measurement": "increased hspB1 expression", "setting": "[2]", "result": "reversed"}]}
